Results as given in US8652718B2, “Resin composition, image-forming material, and image-forming method” (Fuji Xerox Co., Ltd., priority 2012, dated 2014).
In brackets after ≈: the same amount, converted by molar mass. Read-outs that look alike come from different tables or passages of the source.

Legend:
[1] = Visible near-infrared absorption spectrum in a tetrahydrofuran solution; assay type: physicochemical
Source text: The dark brown solid obtained as above is identified by an infrared absorption spectrum (KBr tablet method), a ^1H-NMR spectrum, a mass spectrum, and a visible near-infrared absorption spectrum. As a result, the dark brown solid described above is confirmed to have a molecular structure represented by Formula (I-1).
Visible Near-Infrared Absorption Spectrum (FIG. 1): […]

[2] = Measurement of solubility in tetrahydrofuran; assay type: physicochemical; details: for Solubility in tetrahydrofuran compared to Formulae (II-1) and (II-2): comparison in words from Table 1; for solubility: tetrahydrofuran, 24 °C, organic solvent or mixture, thermodynamic from solid, 24±1° C.
Protocol: The solubility of the compound represented by Formula (I-1) in tetrahydrofuran (24±1° C.) is measured in the following manner.
After 10.00 mg of the compound (dark brown solid) represented by Formula (I-1) is mixed with 5.00 ml of tetrahydrofuran in a screw vial, the vial is irradiated with ultrasonic waves for 30 minutes while the vial is sealed with a cap, and left to stand overnight at room temperature. The obtained solution is filtered through a membrane filter having a pore size of 25 nm, and a dry weight of the dark brown solid remaining on the filter is measured. As a result, the weight of the compound represented by Formula (I-1) dissolved in 5.00 ml of tetrahydrofuran is found, whereby the solubility in tetrahydrofuran may be calculated.

[3] = read-out: Solubility in tetrahydrofuran
[4] = read-out: Solubility in tetrahydrofuran, Relative evaluation

Maximum absorption wavelength (λmax) [1]	Molar absorption coefficient at the maximum absorption wavelength (εmax) [1]	Solubility in tetrahydrofuran compared to Formulae (II-1) and (II-2) [2]	solubility [2, 3]	solubility [2, 4]	Compound
901 nm	207000 M⁻¹ cm⁻¹		< 50 µg/mL	< 100 µg/mL	O=C1C(C=C2C=C(c3ccccc3)SC(c3ccccc3)=C2)=C([O-])/C1=C/c1cc(-c2ccccc2)[s+]c(-c2ccccc2)c1 [II-1, reference compound]
905 nm	190000 M⁻¹ cm⁻¹		300 µg/mL (≈ 455 µM)	100 to 1000 µg/mL (≈ 152 to 1520 µM)	Cc1ccc(C2=CC(=CC3=C([O-])/C(=C/c4cc(-c5ccc(C)cc5)[s+]c(-c5ccc(C)cc5)c4)C3=O)C=C(c3ccc(C)cc3)S2)cc1 [II-2, reference compound]
910 nm	200000 M⁻¹ cm⁻¹		1100 µg/mL (≈ 1170 µM)	≥ 1000 µg/mL	CCCCCCc1ccc(C2=CC(=CC3=C([O-])/C(=C/c4cc(-c5ccc(CCCCCC)cc5)[s+]c(-c5ccc(CCCCCC)cc5)c4)C3=O)C=C(c3ccc(CCCCCC)cc3)S2)cc1 [II-3, reference compound]

The next lines start with the compound.

Compound	Maximum absorption wavelength (λmax) [1]	Molar absorption coefficient at the maximum absorption wavelength (εmax) [1]	Solubility in tetrahydrofuran compared to Formulae (II-1) and (II-2) [2]	solubility [2, 3]	solubility [2, 4]
CC(C)(C)c1ccc(C2=CC(=CC3=C([O-])/C(=C/c4cc(-c5ccc(C(C)(C)C)cc5)[s+]c(-c5ccc(C(C)(C)C)cc5)c4)C3=O)C=C(c3ccc(C(C)(C)C)cc3)S2)cc1 [Formula I-1]	908 nm	269000 M⁻¹ cm⁻¹	superior solubility in tetrahydrofuran	1300 µg/mL	≥ 1000 µg/mL
CCCCc1ccc(C2=CC(=CC3=C([O-])/C(=C/c4cc(-c5ccc(CCCC)cc5)[s+]c(-c5ccc(CCCC)cc5)c4)C3=O)C=C(c3ccc(CCCC)cc3)S2)cc1 [Formula I-2]	910 nm	210000 M⁻¹ cm⁻¹	superior solubility in tetrahydrofuran	1100 µg/mL	≥ 1000 µg/mL
CCc1ccc(C2=CC(=CC3=C([O-])/C(=C/c4cc(-c5ccc(CC)cc5)[s+]c(-c5ccc(CC)cc5)c4)C3=O)C=C(c3ccc(CC)cc3)S2)cc1 [Formula I-3]	908 nm	180000 M⁻¹ cm⁻¹	superior solubility in tetrahydrofuran	600 µg/mL	100 to 1000 µg/mL
